Where two headings read alike, the source gives them in different places.
How the values were obtained:
[1] = Particle size distribution by laser diffraction (Malvern Master Sizer 2000); type: physicochemical
Excerpt: As used herein, DX means that X percent of the particles have a diameter less than a specified diameter D. Thus, a D90 or d(0.9) of less than 300 microns means that 90 volume-percent of the micronized particles in a composition have a diameter less than 300 microns.
As used herein, “Particle Size Distribution (P.S.D)” means the cumulative volume size distribution of equivalent spherical diameters as determined by laser diffraction in Malvern Master Sizer 2000 equipment or its equivalent. “Mean particle size distribution, i.e., D50” correspondingly, means the median of said particle size distribution.

Tapped density = type: physicochemical
[2] = Storage stability of crystalline form A5 (temperature / relative humidity); type: physicochemical
Experimental: The term “remains stable”, as defined herein, refers to lack of formation of impurities, while being stored as described herein. The stability of crystalline form A5 is measured by maintaining crystalline form A5 at a temperature of about 40° C. at a relative humidity of about 75% for at least about 1 month, specifically for a period of 6 months, or at a temperature of about 25° C. at a relative humidity of about 60% for at least about 6 months.

[3] = Polymorphic stability of form A5 after compression or particle size reduction; type: physicochemical
Experimental: The X-Ray powder diffraction was measured by an X-ray powder Diffractometer equipped with a Cu-anode (λ=1.54 Angstrom), X-ray source operated at 40 kV, 40 mA and a Ni filter is used to strip K-beta radiation. Two-theta calibration is performed using an NIST SRM 1976, Corundum standard. The sample was analyzed using the following instrument parameters: measuring range=3-45° 2θ; step width=0.01579°; and measuring time per step=0.11 second.

[4] = cited from earlier work

Row | Particle Size Distribution d(0.9) [1] | Particle Size Distribution d(0.1) [1] [microns] | Particle Size Distribution d(0.5) [1] [microns] | Structure (SMILES) | further results
1 | less than 130 microns | – | – | COc1ccccc1Oc1c(NS(=O)(=O)c2ccc(C(C)(C)C)cc2)nc(-c2ncccn2)nc1OCCO [Example 9, Bosentan] | –
2 | – | – | – | COc1ccccc1Oc1c(NS(=O)(=O)c2ccc(C(C)(C)C)cc2)nc(-c2ncccn2)nc1OCCO [Example 6, Bosentan] | Tapped density (Tapped density): 0.667 g/mL
3 | 109.61 microns | 14.85 | 53.73 | COc1ccccc1Oc1c(NS(=O)(=O)c2ccc(C(C)(C)C)cc2)nc(-c2ncccn2)nc1OCCO [Example 9D, Bosentan] | –
4 | – | – | – | COc1ccccc1Oc1c(NS(=O)(=O)c2ccc(C(C)(C)C)cc2)nc(-c2ncccn2)nc1OCCO [Example 4, Bosentan] | Tapped density (Tapped density): 0.714 g/mL
5 | 231.09 microns | 13.39 | 85.61 | COc1ccccc1Oc1c(NS(=O)(=O)c2ccc(C(C)(C)C)cc2)nc(-c2ncccn2)nc1OCCO [Example 7, Bosentan] | –
6 | 69.43 microns | 7.89 | 31.92 | COc1ccccc1Oc1c(NS(=O)(=O)c2ccc(C(C)(C)C)cc2)nc(-c2ncccn2)nc1OCCO [Example 9C, Bosentan] | –
7 | – | – | – | COc1ccccc1Oc1c(NS(=O)(=O)c2ccc(C(C)(C)C)cc2)nc(-c2ncccn2)nc1OCCO [bosentan crystalline form A5, Bosentan] | stability on storage, tendency to convert to other forms ([2]; about 25° C., relative humidity about 60%, at least about 6 months): more stable; crystalline form and stability on storage ([2]; about 25±2° C., relative humidity about 60±5%, 6 months): remains in the same crystalline form and stable; crystalline form and stability on storage ([2]; about 25±2° C., relative humidity about 60±5%, at least one month): remains in the same crystalline form and stable; stability on storage, tendency to convert to other forms ([2]; about 40° C., relative humidity about 75%, at least about 1 month, specifically 6 months): more stable; crystalline form and stability on storage ([2]; about 40±2° C., relative humidity about 75±5%, 6 months): remains in the same crystalline form and stable; crystalline form and stability on storage ([2]; about 40±2° C., relative humidity about 75±5%, at least one month): remains in the same crystalline form and stable; crystalline form and stability after mechanical particle size reduction ([3]; cutting, chipping, crushing, milling, grinding, micronizing): remains in the same crystalline faun and stable; crystalline form and stability after compression ([3]; pressure of about 7.5 tons/cm^2 for 10 to 15 minutes, checked by X-ray diffractometer): remains in the same crystalline form and stable
8 | 127.11 microns | 17.03 | 58.84 | COc1ccccc1Oc1c(NS(=O)(=O)c2ccc(C(C)(C)C)cc2)nc(-c2ncccn2)nc1OCCO [Example 9E, Bosentan] | –
9 | 78.25 microns | 11.76 | 38.96 | COc1ccccc1Oc1c(NS(=O)(=O)c2ccc(C(C)(C)C)cc2)nc(-c2ncccn2)nc1OCCO [Example 9B, Bosentan] | –
10 | – | – | – | COc1ccccc1Oc1c(NS(=O)(=O)c2ccc(C(C)(C)C)cc2)nc(-c2ncccn2)nc1OCCO [Bosentan, p-tert-butyl-N-[6-(2-hydroxyethoxy)-5-(2-methoxyphenoxy)-2-(2-pyrimidinyl)-4-pyrimidinyl]benzenesulfonamide monohydrate] | solubility in aqueous solution at low pH ([4]; pH 1.1): 0.1 mg/100 ml; solubility in aqueous solution at low pH ([4]; pH 4.0): 0.1 mg/100 ml; solubility in aqueous solution at low pH ([4]; pH 5.0): 0.2 mg/100 ml; solubility in water ([4]; water): 1.0 mg/100 ml
11 | – | – | – | COc1ccccc1Oc1c(NS(=O)(=O)c2ccc(C(C)(C)C)cc2)nc(-c2ncccn2)nc1OCCO [Example 3, Bosentan] | Tapped density (Tapped density): 0.668 g/mL
12 | 120.88 microns | – | 28.95 | COc1ccccc1Oc1c(NS(=O)(=O)c2ccc(C(C)(C)C)cc2)nc(-c2ncccn2)nc1OCCO [Example 9A, Bosentan] | –
13 | less than 60 microns | – | – | COc1ccccc1Oc1c(NS(=O)(=O)c2ccc(C(C)(C)C)cc2)nc(-c2ncccn2)nc1OCCO [Example 8, Bosentan] | –
14 | – | – | – | COc1ccccc1Oc1c(NS(=O)(=O)c2ccc(C(C)(C)C)cc2)nc(-c2ncccn2)nc1OCCO [Example 5, Bosentan] | Tapped density (Tapped density): 0.626 g/mL
